Results as given in patent US11077100B2, “Tetrahydroquinoline derivatives as P2X7 receptor antagonists” (RaQualia Pharma Inc., priority 2017, dated 2021).
pIC50: −log10 of the molar value.

Target: human P2X7 (Homo sapiens (Human), UniProt Q99572)
Test: Human P2X7 functional assay (Ca2+ influx, Fluo-4, FDSS)
Format: cell-based
Conditions: antagonistic activity with respect to the human P2X7 receptor; BzATP final concentration 80 microM
Method: The ability of the 5,6,7,8-tetrahydroquinoline and 6,7-dihydro-5H-cyclopenta[b]pyridine derivatives of the formula (I) to inhibit the P2X7 channel was measured by Ca^2+ influx assay and electrophysiology assay described below.
Human P2X7 Functional Assay
The functional activity of compounds was determined by measuring changes in intracellular calcium concentration using a Ca^2+-sensitive fluorescent dye, Fluo-4 (Molecular Probes). The changes in fluorescent signal were monitored by the cell imaging technology by Hamamatsu Photonics's Functional Drug Screening System (FDSS). Increases in intracellular Ca^2+ concentration were readily detected upon activation with BzATP.
HEK293 cells stably expressing human P2X7 (GenBank accession number BC011913) carrying a C-terminal FLAG tag were grown in T225 flasks, in a 5% CO2 humidified incubator to about 80% confluence. Media composition consisted of Dulbecco's Modified Eagle Medium (high glucose), 10% fetal bovine serum ([…]), 100 units/[…] Penicillin, 100 microg/mL Streptomycin and 250 microg/mL Geneticine.
1. Plate-out HEK293-human P2X7 cells (40 microL medium containing 10,000 cells per well) into poly-D-lysine coated 384-well plates (Corning) at 24 h prior to assay.
2. Incubate at 37° C. in 5% CO2.
3. Incubate the plate at 37° C. in 5% CO2 for 1 h.
5. Test compounds were prepared at 100× the test concentration in DMSO by serial dilution with Biomek-FX liquid handling instrument. 33× diluted compound solutions in assay buffer were prepared in intermediate compound plate with Biomek-NX liquid handling instrument. A further 3× dilution occurred in below steps 6 and 7.
6. Add 20 microL of 33× diluted compound solutions into each well and leave the plate for 10 min under the dark at room temperature.
7. Measure activity by FDSS as follows: • Set the assay plate on the stacker of FDSS. • Start the detection of fluorescence intensity at 540 nm by 480 nm exicitation. • After 30 seconds, add 20 microL of assay buffer containing 240 microM BzATP (final concentration 80 microM).
IC50 values for compounds of the present invention were determined from 7-point dose-response studies. Curves were generated using the average of duplicate wells for each data point. Finally, the IC50 values are calculated with the best-fit dose curve determined by XLfit (ID Business Solutions Ltd.).

human P2X7, sequence (Q99572 whole entry): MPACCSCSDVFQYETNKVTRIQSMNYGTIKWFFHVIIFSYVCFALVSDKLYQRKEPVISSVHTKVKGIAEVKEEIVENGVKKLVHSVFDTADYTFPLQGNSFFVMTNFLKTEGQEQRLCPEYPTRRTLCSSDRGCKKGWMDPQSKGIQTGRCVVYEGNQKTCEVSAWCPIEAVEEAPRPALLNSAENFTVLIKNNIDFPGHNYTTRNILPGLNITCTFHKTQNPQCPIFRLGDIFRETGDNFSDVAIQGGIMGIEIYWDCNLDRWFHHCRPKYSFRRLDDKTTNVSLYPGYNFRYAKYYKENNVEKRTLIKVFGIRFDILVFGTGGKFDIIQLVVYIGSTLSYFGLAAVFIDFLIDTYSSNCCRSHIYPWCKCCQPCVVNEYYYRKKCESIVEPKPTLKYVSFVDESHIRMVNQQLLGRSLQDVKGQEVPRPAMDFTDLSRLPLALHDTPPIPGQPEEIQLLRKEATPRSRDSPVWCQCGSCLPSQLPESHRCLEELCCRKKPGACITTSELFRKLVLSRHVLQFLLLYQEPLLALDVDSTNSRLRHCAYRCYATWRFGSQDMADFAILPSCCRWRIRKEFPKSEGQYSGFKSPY

Structure (SMILES)	pIC50
O=C(NCC(c1ccccc1)N1CCOCC1)[C@]1(F)CC[C@H](O)c2ncccc21 (mixture of isomers) [Example 235, (5S,8S)-5-fluoro-8-hydroxy-N-((rac)-2-morpholino-2-phenylethyl)-5,6,7,8-tetrahydroquinoline-5-carboxamide]	5.52 to 6.00
O=C1CCC(C(=O)NCc2c(Cl)cc(Cl)cc2CO)c2cccnc21 (stereo not drawn) [Example 4, N-(2,4-dichloro-6-(hydroxy-methyl)benzyl)-8-oxo-5,6,7,8-tetrahydroquinoline-5-carboxamide]	> 7.30
O=C1CCC(C(=O)NCC2CCCCCC2)c2cccnc21 (stereo not drawn) [Example 5, N-(cycloheptylmethyl)-8-oxo-5,6,7,8-tetrahydro-quinoline-5-carboxamide]	5.52 to 6.00
Cc1cc(Cl)cc(Cl)c1CNC(=O)C1(O)CCC(=O)c2ncccc21 (stereo not drawn) [Example 15, N-(2,4-dichloro-6-methylbenzyl)-5-hydroxy-8-oxo-5,6,7,8-tetrahydro-quinoline-5-carboxamide]	6.00 to 6.52
O=C1CC(C(=O)NCc2cccc(C(F)(F)F)c2Cl)c2cccnc21 (stereo not drawn) [Example 17, N-(2-chloro-3-(trifluoromethyl)benzyl)-7-oxo-6,7-dihydro-5H-cyclopenta[b] pyridine-5-carboxamide]	7.00 to 7.30
Cc1cc(Cl)cc(Cl)c1CNC(=O)C1CCC(CC(=O)O)c2ncccc21 (stereo not drawn) [Example 30, 2-(5-((2,4-dichloro-6-methyl-benzyl)carbamoyl)-5,6,7,8-tetrahydroquinolin-8-yl) acetic acid]	> 7.30
O=C(O)CC1CCC(C(=O)NCc2cccc(C(F)(F)F)c2Cl)c2cccnc21 (stereo not drawn) [Example 31, 2-(5-((2-chloro-3-(trifluoro-methyl)benzyl)carbamoyl)-5,6,7,8-tetrahydroquinolin-8-yl)acetic acid]	7.00 to 7.30
O=C(NCc1ccc(Cl)cc1Cl)[C@H]1CC[C@H](O)c2ncccc21 [Example 65, (5S,8S)-N-(2,4-dichloro-benzyl)-8-hydroxy-5,6,7,8-tetrahydroquinoline-5-carboxamide]	6.00 to 6.52
O=C(NCc1ccc(F)cc1C(F)(F)F)[C@H]1CC[C@H](O)c2ncccc21 [Example 75, (5S,8S)-N-(4-fluoro-2-(tri-fluoromethyl)benzyl)-8-hydroxy-5,6,7,8-tetra-hydroquinoline-5-carbox-amide]	5.52 to 6.00
O=C(NCc1cccc(C(F)(F)F)c1Cl)[C@H]1CC[C@H](O)c2ncccc21 [Example 86, (5S,8S)-N-(2-chloro-3-(trifluoromethyl)benzyl)-8-hydroxy-5,6,7,8-tetra-hydroxyqinoline-5-carboxamide]	6.52 to 7.00
Cc1cc(Cl)cc(Cl)c1CNC(=O)[C@H]1C[C@@H](O)c2ncccc21 [Example 98, (5S,7R)-N-(2,4-dichloro-6-methylbenzyl)-7-hy-droxy-6,7-dihydro-5H-cyclopenta[b]pyridin-5-carboxamide]	6.52 to 7.00
Cc1cc(Cl)cc(Cl)c1CNC(=O)[C@@]1(F)CC[C@H](O)c2ncccc21 [Example 99, (5R,8S)-N-(2,4-dichloro-6-methylbenzyl)-5-fluoro-8-hydroxy-5,6,7,8-tetrahydroquinoline-5-carboxamide]	> 7.30
O=C(NCc1cccc(C(F)(F)F)c1Cl)[C@@]1(F)CC[C@H](O)c2ncccc21 [Example 101, (5R,8S)-N-(2-chloro-3-(trifluoromethyl)benzyl)-5-fluoro-8-hydroxy-5,6,7,8-tetrahydroquinoline-5-carboxamide]	6.52 to 7.00
O=C(NCc1c(Cl)cc(Cl)cc1CO)[C@@]1(F)CC[C@H](O)c2ncccc21 [Example 103, (5R,8S)-N-(2,4-dichloro-6-hydroxymethylbenzyl)-5-fluoro-8-hydroxy-5,6,7,8-tetrahydroquinoline-5-carboxamide]	6.52 to 7.00
O=C(NCc1ccc(Cl)cc1Cl)[C@@]1(F)CC[C@H](O)c2ncccc21 [Example 105, (5R,8S)-N-(2,4-dichlorobenzyl)-5-fluoro-8-hydroxy-5,6,7,8-tetrahydroquinoline-5-carboxamide]	6.00 to 6.52
O=C(NCc1ccc(F)cc1F)[C@]1(F)CC[C@@H](O)c2ncccc21 [Example 109, (5S,8R)-N-(2,4-difluoro-benzyl)-5-fluoro-8-hydroxy-5,6,7,8-tetrahydroquinoline-5-carboxamide]	6.00 to 6.52
O=C(NCc1c(Cl)cc(C(F)(F)F)cc1Cl)[C@@]1(F)CC[C@H](O)c2ncccc21 [Example 112, (5R,8S)-N-(2,6-dichloro-4-(trifluoromethyl)benzyl)-5-fluoro-8-hydroxy-5,6,7,8-tetrahydroquinoline-5-carboxamide]	6.52 to 7.00
O=C(NCc1c(Cl)cc(C(F)(F)F)cc1Cl)[C@]1(F)CC[C@@H](O)c2ncccc21 [Example 113, (5S,8R)-N-(2,6-dichloro-4-(trifluoromethyl)benzyl)-5-fluoro-8-hydroxy-5,6,7,8-tetrahydroquinoline-5-carboxamide]	> 7.30
O=C(NCc1c(Cl)cc(Cl)cc1C(F)F)[C@@]1(F)CC[C@H](O)c2ncccc21 [Example 114]	6.52 to 7.00

Other lines, results leading:

pIC50	Structure (SMILES)
6.52 to 7.00	Cc1cc(Cl)cc(Cl)c1CNC(=O)[C@H]1CC[C@H](O)c2ncccc21 [Example 63, (5S,8S)-N-(2,4-dichloro-6-methylbenzyl)-8-hydroxy-5,6,7,8-tetrahydro-quinoline-5-carboxamide]
> 7.30	Cc1cc(Cl)cc(Cl)c1CNC(=O)C1CC[C@H](O)c2ncccc21 (stereo partly drawn) [Example 64, (5R,8S)-N-(2,4-dichloro-6-methylbenzyl)-8-hydrdroxy-5,6,7,8-tetra-hydroxyquinoline-5-carboxamide]
6.00 to 6.52	O=C(NCc1c(F)cc(Cl)cc1Cl)[C@H]1CC[C@H](O)c2ncccc21 [Example 69, (5S,8S)-N-(2,4-dichloro-6-fluorobenzyl)-8-hy-droxy-5,6,7,8-tetrahydro-quinoline-5-carboxamide]
6.00 to 6.52	O=C(NCc1ccc(F)c(F)c1F)[C@H]1CC[C@H](O)c2ncccc21 [Example 71, (5S,8S)-8-hydroxy-N-(2,3,4-trifluorobenzyl)-5,6,7,8-tetrahydroquinoline-5-carboxamide]
6.52 to 7.00	O=C(NCc1c(F)cc(F)cc1F)[C@@H]1CC[C@H](O)c2ncccc21 [Example 73, (5R,8S)-8-hydroxy-N-(2,4,6-trifluorobenzyl)-5,6,7,8-tetrahydroquinoline-5-carboxamide]
6.00 to 6.52	O=C(NCc1ccc(Cl)cc1F)[C@H]1CC[C@H](O)c2ncccc21 [Example 77, (5S,8S)-N-(4-chloro-2-fluorobenzyl)-8-hydroxy-5,6,7,8-tetrahydroquinoline-5-carboxamide]
6.00 to 6.52	O=C(NCc1ccc(Br)cc1F)[C@H]1CC[C@H](O)c2ncccc21 [Example 79, (5S,8S)-N-(4-bromo-2-fluorobenzyl)-8-hydroxy-5,6,7,8-tetrahydroquinoline-5-carboxamide]
6.52 to 7.00	O=C(NCc1ccc(F)cc1Cl)[C@H]1CC[C@@H](O)c2ncccc21 [Example 90, (5S,8R)-N-(2-chloro-4-fluorobenzyl)-8-hydroxy-5,6,7,8-tetrahydroquinoline-5-carboxamide]
6.52 to 7.00	O=C(NCc1c(F)cc(Cl)cc1Cl)[C@@H]1CC[C@@H](O)c2ncccc21 [Example 91, (5R,8R)-N-(2,4-dichloro-6-fluorobenzyl)-8-hy-droxy-5,6,7,8-tetrahydro-quinoline-5-carboxamide]
6.52 to 7.00	O=C(NCc1c(F)cc(Cl)cc1Cl)[C@H]1CC[C@@H](O)c2ncccc21 [Example 92, (5S,8R)-N-(2,4-dichloro-6-fluorobneyzl)-8-hy-droxy-5,6,7,8-tetrahydro-quinoline-5-carboxamide]
5.52 to 6.00	O=C(NCc1ccc(F)c(F)c1F)[C@@H]1CC[C@@H](O)c2ncccc21 [Example 93, (5R,8R)-8-hydroxy-N-(2,3,4-trifluorobenzyl)-5,6,7,8-tetrahydroquinoline-5-carboxamide]
5.52 to 6.00	O=C(NCc1ccc(F)c(F)c1F)[C@H]1CC[C@@H](O)c2ncccc21 [Example 94, (5S,8R)-8-hydroxy-N-(2,3,4-trifluorobenzyl)-5,6,7,8-tetrahydroquinoline-5-carboxamide]
5.52 to 6.00	O=C(NCc1ccc(Cl)cc1F)[C@@H]1CC[C@@H](O)c2ncccc21 [Example 95, (5R,8R)-N-(4-chloro-2-fluorobenzyl)-8-hydroxy-5,6,7,8-tetrahydroquinoline-5-carboxamide]
5.52 to 6.00	O=C(NCc1ccc(Cl)cc1F)[C@H]1CC[C@@H](O)c2ncccc21 [Example 96, (5S,8R)-N-(4-chloro-2-fluorobenzyl)-8-hydroxy-5,6,7,8-tetrahydroquinoline-5-carboxamide]
